This assay relates to S. venezuelae. In words: Resistance of S. venezuelae strains to kanamycin. The class given is cell-based, Streptomyces venezuelae. How it is done: As expected, the recombinant heterologous strain expressing kanA-kanB-kanK (DOS strain) produced compound 1 (21.4 μM) (FIG. 2A). To confer resistance to kanamycin in S. venezuelae without modifying the aminoglycoside structure, three resistance genes gtmF-gtmK-gtmL from the gentamicin gene cluster were introduced into the recombinant heterologous strain. Transformants expressing these genes were resistant to >10.0 mg/ml of the commercially available kanamycin compared to 1.0 μg/ml in control strains. These resistance genes were expressed together with the kanamycin biosynthetic genes in the heterologous host in subsequent experiments.

Some results are limits rather than exact numbers.

With `NC[C@H]1O[C@H](O[C@H]2[C@H](O)[C@@H](O[C@H]3O[C@H](CO)[C@@H](O)[C@H](N)[C@H]3O)[C@H](N)C[C@@H]2N)[C@H](O)[C@@H](O)[C@@H]1O` [kanamycin], the “kanamycin concentration the strain is resistant to” value (S. venezuelae transformants expressing resistance genes gtmF-gtmK-gtmL) was > 10.0 mg/mL and the “kanamycin concentration the strain is resistant to” value (control strains) turned out to be 0.001 mg/mL.
